Measurements reported in patent publication US10940139B2, “Compounds that interact with the Ras superfamily for the treatment of cancers, inflammatory diseases, rasopathies, and fibrotic disease” (Shy Therapeutics LLC, priority 2017, dated 2021).

Legend:
KRas G12D mutant protein = KRas G12D mutant protein (Homo sapiens (Human), UniProt P01116, G12D); assay: Ras GTP binding domain inhibition assay (labeled GTP); conditions: at 20 μM; read-out: KRas G12D % Inh.
Protocol: The following method was developed as specific assay for KRas G12D mutant protein.
Buffer-I: • 50 mM Tris, pH 7.5 • 150 mM NaCl (optional) • 1 mM MgCl2 • 1 mM DTT. • KRas G12D mutant protein was expressed as a His-tagged protein. Purified His-KRas G12D protein was diluted in buffer-I to a final concentration of 3-10 μg/ml. • 200 μl of the diluted His-KRas G12D protein was added to a nickel coated 96 well plate and incubated overnight at 4° C. • The next day, wells were washed 3× in 200 μl of Buffer-I. • Then 200 μl of Buffer-I were added to each well in the presence of 1% DMSO. • Tested compounds were added to the protein-coated wells at a concentration of 20 μM, and incubated for 3 hours at room temperature. While performing IC50 measurements a serial dilution of all tested concentrations was prepared.
Then 22 μl of Cy3-GTP or Cy5-GTP was added to each well. The labeled GTP was incubated for 45 min. at room temperature. • Following GTP incubation, wells were washed 3× in Buffer-I, and 200 μl of Buffer-I were added to each well. • Following washes, the amount of bound labeled-GTP was measured with an Eppendorf AF2200 plate reader.

[1] = target: KRas G12D/Q61H double mutant (Homo sapiens (Human), UniProt P01116, G12D/Q61H); assay: as above; conditions: at 20 μM; read-out: KRas G12D Q61H % Inh.
How it was run: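 Fluorescence read-out of Cy3-/Cy5-GTP remaining bound to nickel-immobilized His-KRas after washes. Protein was coated overnight at 4° C, then exposed to compound for 3 h at room temperature before a 45 min labeled-GTP incubation.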

Rac-1 = Rac-1 (Homo sapiens (Human), UniProt P63000); assay: Rac inhibition assay (labeled GTP); type: binding; conditions: read-out: Rac-1 % Inh.
Rho-A = Rho-A (Homo sapiens (Human), UniProt P61586); assay: Rho inhibition assay (labeled GTP); type: binding; conditions: read-out: Rho-A % Inh.
Rho-A, sequence (P61586 whole entry): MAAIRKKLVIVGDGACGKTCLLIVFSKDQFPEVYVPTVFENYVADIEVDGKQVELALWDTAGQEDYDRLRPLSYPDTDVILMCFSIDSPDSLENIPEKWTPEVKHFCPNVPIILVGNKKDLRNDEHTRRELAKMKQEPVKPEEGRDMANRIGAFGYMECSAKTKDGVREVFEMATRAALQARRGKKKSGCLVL

KRas G12D mutant protein, sequence (P01116-2 other isoform, or with tags, fused parts or gaps G12D): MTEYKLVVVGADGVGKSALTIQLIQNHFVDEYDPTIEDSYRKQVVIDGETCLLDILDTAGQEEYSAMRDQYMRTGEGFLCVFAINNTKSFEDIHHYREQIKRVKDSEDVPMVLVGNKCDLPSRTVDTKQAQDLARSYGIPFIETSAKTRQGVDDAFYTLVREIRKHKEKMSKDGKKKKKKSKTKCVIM
KRas G12D/Q61H double mutant, sequence (P01116-2 other isoform, or with tags, fused parts or gaps G12D/Q61H): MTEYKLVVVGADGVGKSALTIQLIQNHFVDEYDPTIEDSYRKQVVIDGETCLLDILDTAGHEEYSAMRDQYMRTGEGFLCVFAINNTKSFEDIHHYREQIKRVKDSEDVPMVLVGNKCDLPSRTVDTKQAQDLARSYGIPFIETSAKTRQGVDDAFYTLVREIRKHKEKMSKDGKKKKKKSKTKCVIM

| SMILES | inhibition at 20 µM (KRas G12D mutant protein) [%] | inhibition at 20 µM [1] [%] | inhibition at 20 µM (Rac-1) [%] | inhibition at 20 µM (Rho-A) [%] |
| --- | --- | --- | --- | --- |
| Oc1nc(-c2ccccn2)nc2c(C3CCC3)csc12 [drawing 3797] | 51 to 75 | 51 to 75 | 76 to 100 | 76 to 100 |
| Oc1cccc(-c2csc3c(O)nc(-c4ccccn4)nc23)n1 [drawing 3817] | 51 to 75 | 51 to 75 | 76 to 100 | 76 to 100 |
| Oc1nc(-c2ccccn2)nc2c(-c3ccccc3F)csc12 [drawing 3740] | 51 to 75 | 51 to 75 | 76 to 100 | 76 to 100 |
| COc1ccc(CCC(=O)Nc2nc(-c3ccccn3)nc3sccc23)cn1 [drawing 3812] | 51 to 75 | 51 to 75 | 76 to 100 | 76 to 100 |
| COc1ccnc(-c2nc(O)c3ccsc3n2)c1 [drawing 3627] | 51 to 75 | 51 to 75 | 76 to 100 | 51 to 75 |
| Cc1nn(C(C)C)cc1-c1csc2c(O)nc(-c3ccccn3)nc12 [drawing 3825] | 51 to 75 | 51 to 75 | 76 to 100 | 76 to 100 |
| Oc1nc(-c2ccccn2)nc2sccc12 [drawing 3624] | 25 to 50 | 51 to 75 | 76 to 100 | 76 to 100 |
| COc1cnc(-c2cnc[nH]2)nc1O [drawing 3834] | 51 to 75 | 51 to 75 | 76 to 100 | 76 to 100 |
| CC1CN(c2ccccc2)CCN1C(=O)c1csc2c(O)nc(-c3ccccn3)nc12 (centres unmarked) [drawing 3650] | 76 to 100 | 51 to 75 | 76 to 100 | 76 to 100 |
| COc1cnc(-c2nccn2C)nc1O [drawing 3831] | 76 to 100 | 76 to 100 | 76 to 100 | 76 to 100 |
| Oc1nc(-c2ccccn2)nc2c(-c3cc(F)ccc3OC(F)F)csc12 [drawing 3732] | 51 to 75 | 25 to 50 | 51 to 75 | 25 to 50 |
| O=C(c1csc2c(O)nc(-c3ccccn3)nc12)N1CCOC(c2ccccc2Cl)C1 (centres unmarked) [drawing 3658] | 25 to 50 | 51 to 75 | 51 to 75 | 76 to 100 |
| CC(C)Oc1cnc(-c2ccccn2)nc1O [drawing 3800] | 51 to 75 | 51 to 75 | 76 to 100 | 76 to 100 |
| Cn1nnc2ccc(-c3csc4c(O)nc(-c5ccccn5)nc34)cc21 [drawing 3733] | 51 to 75 | 51 to 75 | 76 to 100 | 51 to 75 |
| Oc1nc(-c2ccccn2)nc2c(-c3ccccn3)csc12 [drawing 3768] | 25 to 50 | 1 to 25 | 51 to 75 | 51 to 75 |
| COCCNc1nc(-c2cn(C)cn2)nc2sc(-c3ccncc3)c(-c3ccccc3)c12 [drawing 3848] | 51 to 75 | 76 to 100 | 76 to 100 | 76 to 100 |
| COc1nc(-c2ccccn2)nc2c1c(-c1ccccc1)nn2-c1ccccn1 [drawing 3858] | 51 to 75 | 51 to 75 | 76 to 100 | 76 to 100 |
| O=C(CCn1ccnc1)Nc1nc(-c2ccccn2)nc2sccc12 [drawing 3761] | 76 to 100 | 51 to 75 | 76 to 100 | 76 to 100 |
| Oc1nc(-c2ccccn2)nc2c(-c3ccsc3)csc12 [drawing 3747] | 51 to 75 | 25 to 50 | 76 to 100 | 51 to 75 |
| COC(C)(C)c1ccc(-c2csc3c(O)nc(-c4nccn4C)nc23)cc1 [drawing 3936] | 25 to 50 | – | 25 to 50 | 51 to 75 |

More lines, now with the values ahead:

| inhibition at 20 µM (KRas G12D mutant protein) [%] | inhibition at 20 µM [1] [%] | inhibition at 20 µM (Rac-1) [%] | inhibition at 20 µM (Rho-A) [%] | SMILES |
| --- | --- | --- | --- | --- |
| 25 to 50 | 25 to 50 | 51 to 75 | 51 to 75 | O=c1[nH]c(-c2ccccn2)nc2c([C@@H]3O[C@H](CO)[C@@H](O)[C@H]3O)csc12 [drawing 3845] |
| 25 to 50 | 51 to 75 | 51 to 75 | 76 to 100 | OCC1(c2ccc(-c3nc(-c4ccccn4)nc(O)c3Oc3ccccc3)cc2)CC1 [drawing 3852] |
| 51 to 75 | 51 to 75 | 76 to 100 | 76 to 100 | O=C(c1cc2nc(-c3ccccn3)nc(O)c2s1)N1CCN(c2ccccc2)CC1 [drawing 3713] |
| 25 to 50 | 51 to 75 | 76 to 100 | 51 to 75 | Cc1c(C(=O)O)sc2c(O)nc(-c3ccccn3)nc12 [drawing 3794] |
| 25 to 50 | 25 to 50 | 51 to 75 | 76 to 100 | COc1ccc(COC[C@H]2OC(c3csc4c(=O)[nH]c(-c5ccccn5)nc34)[C@H](O)[C@@H]2O)cc1 (some centres unmarked) |
| 51 to 75 | 51 to 75 | 76 to 100 | 76 to 100 | O=C(CCc1nn[nH]n1)Nc1nc(-c2ccccn2)nc2sccc12 [drawing 3762] |
| 25 to 50 | 25 to 50 | 51 to 75 | 51 to 75 | Nc1nc(-c2ccccn2)nc2c(-c3ccccc3)csc12 [drawing 3731] |
| 51 to 75 | 51 to 75 | 76 to 100 | 76 to 100 | Cc1sc2c(O)nc(-c3ccccn3)nc2c1-c1ccccc1Cl [drawing 3833] |
| 25 to 50 | 25 to 50 | 25 to 50 | 51 to 75 | Oc1nc(-c2ccccn2)nc2c(-c3cc(Cl)cc(Cl)c3)csc12 [drawing 3720] |
| 51 to 75 | 51 to 75 | 76 to 100 | 76 to 100 | Nc1cccc(-c2csc3c(O)nc(-c4ccccn4)nc23)n1 [drawing 3832] |
| 51 to 75 | 76 to 100 | 76 to 100 | 76 to 100 | O=C(c1csc2c(O)nc(-c3ccccn3)nc12)N1CC2CC1CN2c1ccccc1 (centres unmarked) [drawing 3710] |
| 51 to 75 | 51 to 75 | 76 to 100 | 76 to 100 | O=C(CCc1cncnc1)Nc1nc(-c2ccccn2)nc2sccc12 [drawing 3763] |
| 1 to 25 | 25 to 50 | 76 to 100 | 76 to 100 | Nc1nc(-c2ccccn2)nc2ccsc12 [drawing 3706] |
| 25 to 50 | – | 25 to 50 | 51 to 75 | Cc1sc2c(O)nc(-c3nccn3C)nc2c1-c1ccccc1 [drawing 3912] |
| 76 to 100 | – | 51 to 75 | 51 to 75 | CC(C)COc1ccc(-c2csc3c(O)nc(-c4nccn4C)nc23)cn1 [drawing 3930] |
| 1 to 25 | – | 1 to 25 | 1 to 25 | COc1ccc(-c2c(-c3ccccc3)sc3c(O)nc(-c4nccn4C)nc23)cn1 [drawing 3911] |
| 25 to 50 | – | 51 to 75 | 51 to 75 | Cc1sc2c(O)nc(-c3nccn3C)nc2c1-c1ccccc1Cl [drawing 3920] |
| 25 to 50 | – | 51 to 75 | 25 to 50 | Cn1ccnc1-c1nc(O)c2scc(-c3ccc(F)cc3F)c2n1 [drawing 3934] |
| 0 | – | 0 | 1 to 25 | Cn1ccnc1-c1nc(O)c2sc(-c3ccccc3)c(-c3ccccc3)c2n1 [drawing 3906] |
| 51 to 75 | – | 51 to 75 | 51 to 75 | Cn1ccnc1-c1nc(NCCCO)c2c(-c3ccccc3)c(-c3ccccc3)sc2n1 [drawing 3897] |
| 51 to 75 | – | 51 to 75 | 51 to 75 | COCCNc1nc(-c2nccn2C)nc2sc(-c3ccncc3)c(-c3ccccc3)c12 [drawing 3900] |
| 1 to 25 | – | 25 to 50 | 25 to 50 | CC(C)COc1ccc(-c2csc3c(O)nc(-c4cn(C)cn4)nc23)cn1 [drawing 3923] |
| 25 to 50 | – | 51 to 75 | 51 to 75 | Cn1ccnc1-c1nc(O)c2scc(-c3ccccc3Cl)c2n1 [drawing 3933] |
